Results from ChEMBL document CHEMBL4411258, “Novel natural compounds from endophytic fungi with anticancer activity” (Eur J Med Chem, 2018).
Converted amounts (≈) assume the structure as drawn. Values belong to the molecule of their own block, whether it stands above or below them. Positions of bridges follow the written chain, without caps; N, C: chain ends. Residues, ends and D or L forms follow the SMILES beside them.

How the values were obtained:
[1] = system: BT-549; assay: Cytotoxicity against human BT549 cells after 48 hrs by neutral red dye based assay; format: functional, cell-based; details: BT-549, 48 h
[2] = system: KB; assay: Cytotoxicity against human KB cells after 48 hrs by neutral red dye based assay; format: functional, cell-based
[3] = system: SK-OV-3; assay: Cytotoxicity against human SKOV3 cells after 48 hrs by neutral red dye based assay; format: functional, cell-based; details: SK-OV-3, 48 h
[4] = system: MKN-45; assay: Cytotoxicity against human MKN45 cells after 24 hrs by MTT assay; format: functional, cell-based; details: MKN-45, 24 h
[5] = system: A549; assay: Cytotoxicity against human A549 cells after 24 hrs by MTT assay; format: functional, cell-based; details: A549, 24 h
[6] = system: LoVo; assay: Cytotoxicity against human LoVo cells after 24 hrs by MTT assay; format: functional, cell-based
[7] = system: HL-60; assay: Cytotoxicity against human HL60 cells after 24 hrs by MTT assay; format: functional, cell-based; details: HL-60, 24 h
[8] = system: HeLa; assay: Cytotoxicity against human HeLa cells; format: functional, cell-based
[9] = system: HCT-116; assay: Cytotoxicity against human HCT116 cells; format: functional, cell-based
[10] = system: A549; assay: Cytotoxicity against human A549 cells; format: functional, cell-based
[11] = system: MCF7; assay: Cytotoxicity against human MCF7 cells by MTT assay; format: functional, cell-based
[12] = system: HeLa; assay: Cytotoxicity against human HeLa cells by MTT assay; format: functional, cell-based
[13] = system: HeLa; assay: Cytotoxicity against human HeLa cells after 48 hrs by sulforhodamine B assay; format: functional, cell-based
[14] = system: MDA-MB-231; assay: Cytotoxicity against human MDA-MB-231 cells by MTT assay; format: functional, cell-based
[15] = system: HepG2; assay: Cytotoxicity against human HepG2 cells by MTT assay; format: functional, cell-based
[16] = system: A2780; assay: Cytotoxicity against human cisplatin-sensitive A2780 cells by MTT assay; format: functional, cell-based
[17] = system: L5178Y; assay: Cytotoxicity against mouse L5178Y cells by MTT assay; format: functional, cell-based
[18] = Cytotoxicity against human KATO III cells after 72 hrs by MTT assay; format: functional, cell-based
[19] = system: NCI-H187; assay: Cytotoxicity against human NCI-H187 cells by resazurin microplate assay; format: functional, cell-based
[20] = system: MCF7; assay: Cytotoxicity against human MCF7 cells by resazurin microplate assay; format: functional, cell-based
[21] = system: Vero; assay: Cytotoxicity against African green monkey Vero cells by resazurin microplate assay; format: cell-based; details: Chlorocebus sabaeus
[22] = system: SW480; assay: Cytotoxicity against human SW480 cells by MTT assay; format: functional, cell-based
[23] = system: HepG2; assay: Cytotoxicity against human HepG2 cells after 24 hrs by MTT assay; format: functional, cell-based; details: HepG2, 24 h
[24] = system: MCF7; assay: Cytotoxicity against human MCF7 cells after 24 hrs by MTT assay; format: functional, cell-based; details: MCF7, 24 h
[25] = system: NCI-H460; assay: Cytotoxicity against human NCI-H460 cells; format: functional, cell-based
[26] = system: MCF7; assay: Cytotoxicity against human MCF7 cells by CCK8 assay; format: functional, cell-based
[27] = system: HL-60; assay: Cytotoxicity against human HL60 cells by CCK8 assay; format: functional, cell-based
[28] = system: SW480; assay: Cytotoxicity against human SW480 cells by CCK8 assay; format: functional, cell-based
[29] = system: SMMC-7721; assay: Cytotoxicity against human SMMC7721 cells by CCK8 assay; format: functional, cell-based
[30] = system: A549; assay: Cytotoxicity against human A549 cells by CCK8 assay; format: functional, cell-based
[31] = Inhibition of TNFalpha-induced NFkappaB (unknown origin) activation expressed in HEK293 cells after 6 hrs by luciferase reporter gene based assay; format: cell-based; details: Homo sapiens, HEK293, 6 h
[32] = system: MOLT-3; assay: Cytotoxicity against human MOLT3 cells by XTT assay; format: functional, cell-based
[33] = system: HL-60; assay: Cytotoxicity against human HL60 cells by XTT assay; format: functional, cell-based
[34] = system: PC-12; assay: Cytotoxicity against rat PC12 cells by MTT assay; format: functional, cell-based
[35] = system: A2780cisR; assay: Cytotoxicity against human A2780cisR cells after 72 hrs by MTT assay; format: functional, cell-based
[36] = system: A2780; assay: Cytotoxicity against human A2780 cells after 72 hrs by MTT assay; format: functional, cell-based; details: A2780, 72 h
[37] = system: HepG2; assay: Cytotoxicity against human HepG2 cells after 48 hrs by MTT assay; format: functional, cell-based; details: HepG2, 48 h
[38] = system: HCT-116; assay: Cytotoxicity against human HCT116 cells after 48 hrs by MTT assay; format: functional, cell-based; details: HCT-116, 48 h
[39] = system: A549; assay: Cytotoxicity against human A549 cells after 48 hrs by MTT assay; format: functional, cell-based; details: Homo sapiens, A549, 48 h; read-out: IC50

SMILES: C=C(CC[C@@H](C)[C@H]1CC=C2C3=C([C@@H](O)[C@H](OC(C)=O)[C@@]21C)[C@@]1(C)C[C@@H](O)[C@H](OC(=O)c2ccc(O)cc2)C(C)(C)[C@@H]1CC3)C(C)C
- IC50 [1]: 2.46 µM
- IC50 [2]: 2.54 µM
- IC50 [3]: 3.01 µM

SMILES: CCCC[C@H](O)C(=O)C/C(=C\C(=O)O)OC
- IC50 [4]: < 200 µM
- IC50 [5]: < 200 µM
- IC50 [6]: < 200 µM
- IC50 [7]: < 200 µM

SMILES: COC(=O)CC[C@@H](C(=O)OC/C=C(\C)CC/C=C(\C)CCC=C(C)C)N1Cc2c(cc(O)c(OC/C=C(\C)CC/C=C(\C)CCC=C(C)C)c2O)C1=O
- IC50 [8]: 4.77 µM
- IC50 [9]: 33 µM
- IC50 [10]: 12 µM

SMILES: C[C@@H]1CC[C@@]23[C@H](C)CC[C@@H](C[C@H]2[C@]2(C)CC(=O)[C@H]12)C3(C)C
- IC50 [11]: 30.7 µM
- IC50 [12]: 30.1 µM

SMILES: C/C=C/[C@@H]1[C@@H]2C[C@@H](C)CC[C@@H]2[C@](C)(O)[C@@H]2Oc3c(-c4ccc(O)cc4)c[nH]c(=O)c3C(=O)[C@@H]12
- IC50 [13]: 8.8 µM

SMILES: COc1ccc2c(c1)N(CC=C(C)C)C(=O)[C@@]21C=C2C(=O)N3CCC[C@H]3C(=O)N2[C@H]1C=C(C)C
- IC50 [14]: 35.5 µM
- IC50 [15]: 14.1 µM

SMILES: C=C(CC[C@@H](C)[C@H]1CC=C2C3=C([C@@H](O)[C@H](OC(C)=O)[C@@]21C)[C@@]1(C)C[C@@H](OC(C)=O)[C@H](OC(C)=O)C(C)(C)[C@@H]1CC3)C(C)C
- IC50 [1]: 1.82 µM
- IC50 [2]: 0.18 µM
- IC50 [3]: 1.32 µM

SMILES: C=C1[C@@H](C)[C@H]2[C@H](Cc3ccc(O)cc3)NC(=O)[C@]23[C@H](O)/C=C/[C@@H](C)C[C@@H](C)C/C=C/[C@H]3[C@@H]1O
- IC50 [16]: 6.97 µM
- IC50 [17]: 2.55 µM

SMILES: CC(=O)O[C@H]1C=CC(=O)O[C@H]1[C@H]1[C@H]2C=CC=C[C@](O)(O2)[C@H]1C
- IC50 [18]: 1.95 to 40.2 µg/mL (≈ 6.37 to 131 µM)
- IC50 [19]: 1.95 to 40.2 µg/mL (≈ 6.37 to 131 µM)
- IC50 [20]: 1.95 to 40.2 µg/mL (≈ 6.37 to 131 µM)
- IC50 [21]: 1.95 to 40.2 µg/mL (≈ 6.37 to 131 µM)

SMILES: CC1=C(C=O)[C@@]2(C)CCCC(C)(C)[C@@H]2C[C@@H]1O
- IC50 [22]: 8.72 µM

SMILES: CC[C@H](C)[C@@H]1NC(=O)[C@@H]2CSSC[C@H](NC(=O)[C@H](CC(C)C)NC(=O)[C@H](C(C)C)NC1=O)C(=O)N2 (cyclo(CCIVL); disulfide 1-2)
- IC50 [23]: 36 µM
- IC50 [24]: 0.65 µM
- IC50 [5]: 2.42 µM

SMILES: CC1(C)C=Cc2cc3c(cc2O1)NC(=O)[C@]31C[C@@]23NC(=O)[C@]4(CCCN4C2=O)C[C@@H]3C1(C)C
- IC50 [25]: 55.9 µM

SMILES: C=C1[C@@H](C)[C@H]2[C@H](Cc3ccccc3)NC(=O)[C@]23c2ccc(o2)CCC[C@@H](C)C/C=C/[C@H]3[C@@H]1O
- IC50 [26]: 7.7 to 15.8 µM
- IC50 [27]: 7.7 to 15.8 µM
- IC50 [28]: 7.7 to 15.8 µM
- IC50 [29]: 7.7 to 15.8 µM
- IC50 [30]: 7.7 to 15.8 µM

- IC50 [31]: 7.1 µM
SMILES: CCCCC[C@@H]1OC2=C(C(=O)N(OC)C2CSC[C@@H](O)C(=O)O)[C@H](O)[C@@]1(C)O (stereo partly drawn)

SMILES: CC1(C)CC[C@@H](O)[C@](C)(O)[C@@]12CC=C(C=O)CC2
- IC50 [32]: 165 µM
- IC50 [33]: 159 µM

SMILES: CC[C@@H](O)[C@H](O)[C@@H]1C[C@](O)(OC)CC(=O)O1
- IC50 [4]: < 200 µM
- IC50 [5]: < 200 µM
- IC50 [6]: < 200 µM
- IC50 [7]: < 200 µM

SMILES: COc1cccc2c1C(=O)c1c(O)c3c(c(O)c1C2=O)C[C@@](O)(C(=O)CO)C[C@@H]3O[C@H]1C[C@H](N)[C@H](O)[C@H](C)O1 [DOXORUBICIN]
- IC50 [34]: 5.71 µM
- IC50 [17]: 4.6 µM

SMILES: O=C1N2[C@H]3C(=CC=C[C@@H]3O)C[C@]23SS[C@]12C[C@H]1[C@@H]([C@@H](O)C=C[C@@H]1O)N2C3=O
- IC50 [35]: 0.661 µM
- IC50 [36]: 0.664 µM

SMILES: COc1c(OC)c2c(c(OC)c1-c1c[nH]c3ccccc13)O[C@@H]1Nc3ccccc3[C@]21OC
- IC50 [37]: 2.5 µg/mL (≈ 5.62 µM)
- IC50 [38]: 6.4 µg/mL (≈ 14.4 µM)
- IC50 [39]: 3.5 µg/mL (≈ 7.87 µM)
